Data: patent publication US8318635B2, “Phytotoxicity controlling agent for upland farming and phytotoxicity controlling method using the same” (priority 2006, dated 2012)
Where a name gives a salt, the structure may show the parent alone. Read-outs that look alike come from different tables or passages of the source.

Key:
[1] = test system: sweet corn (Delicious 100); assay: Visual growth study, phytotoxicity index, chemicals scattered 14 days after sowing; assay type: in vivo; details: 1.5 leaves stage, treated 14 days after sowing, 8 days after treatment, 0-100 scale, 4-(tert-butyl)benzoic acid 1000 g ai/ha in Examples, 0 in Comparative Examples, herbicide dose per label
Description: (§1) These containers were each kept standing on a water vat filled with a water pool from which water was supplied through the opening in the bottom. […] After 8 days from the chemical treatment and after 14 days from the chemical treatment, visual growth studies were conducted for sweet corn, sorghum and adzuki bean and for wheat, barley, dry-paddy rice, soybean, rapeseed and beet, respectively and the results are shown in Table 2 and Table 3.

[2] = test system: dry-paddy rice (Labell); assay: Visual growth study, phytotoxicity index, chemicals scattered on the next day after sowing; assay type: in vivo; details: treated next day after sowing, 26 days after treatment, 0 = no growth inhibition, 100 = full dying, 4-(tert-butyl)benzoic acid 1000 g ai/ha in Examples, 0 in Comparative Examples, herbicide dose per label
Description: (§2) A wettable powder containing 10% of 4-(tert-butyl)benzoic acid was prepared by blending pulverization of 10 parts of 4-(tert-butyl)benzoic acid, 2 parts of a sodium salt of naphthalenesulfonic acid-formalin condensation product, 2 parts of a polyoxyethylene alkyl ether, 30 parts of diatomaceous earth and 56 parts of clay by using a high-speed air-jet pulverizer.
(§3) These containers were each kept standing in a water vat and water supply for pooling was introduced through the hole opening at the bottom of the water vat.
(§4) For comparison, on the other hand, evaluation was made by conducting growth studies by growing sweet corn, wheat, dry-paddy rice, sorghum, soybean, adzuki bean and rapeseed under the same conditions as in the Examples excepting for the omission of scattering of 4-(tert-butyl)benzoic acid.

[3] = test system: rapeseed; assay: Visual growth study, phytotoxicity index, chemicals scattered 14 days after sowing; assay type: in vivo
Description: as §1

[4] = test system: wheat (Brigadier); assay: as above; assay type: in vivo
Description: as §1

[5] = test system: soybean (Fukuyutaka); assay: as above; assay type: in vivo; details: true leaf extraction stage, treated 14 days after sowing, 14 days after treatment, 0-100 scale, 4-(tert-butyl)benzoic acid 1000 g ai/ha in Examples, 0 in Comparative Examples, herbicide dose per label
Description: as §1

[6] = test system: sorghum (Funk's Hybrid); assay: Visual growth study, phytotoxicity index, chemicals scattered on the next day after sowing; details: treated next day after sowing, 11 days after treatment, 0 = no growth inhibition, 100 = full dying, 4-(tert-butyl)benzoic acid 1000 g ai/ha in Examples, 0 in Comparative Examples, herbicide dose per label
Description: as §2, §3, §4

[7] = test system: dry-paddy rice (Labell); assay: Visual growth study, phytotoxicity index, chemicals scattered 14 days after sowing; assay type: in vivo; details: 0.8 leaves stage, treated 14 days after sowing, 14 days after treatment, 0-100 scale, 4-(tert-butyl)benzoic acid 1000 g ai/ha in Examples, 0 in Comparative Examples, herbicide dose per label
Description: as §1

[8] = test system: wheat (Brigadier); details: in vivo
Description: as §2, §3, §4

[9] = test system: beet (VIGIL); assay: Visual growth study, phytotoxicity index, chemicals scattered 14 days after sowing; assay type: in vivo; details: true leaf extraction stage, treated 14 days after sowing, 14 days after treatment, 0-100 scale, 4-(tert-butyl)benzoic acid 1000 g ai/ha in Examples, 0 in Comparative Examples, herbicide dose per label
Description: as §1

[10] = test system: adzuki bean (Dainagon); assay: as above; assay type: in vivo
Description: as §1

[11] = test system: sweet corn (Delicious 100); assay: Visual growth study, phytotoxicity index, chemicals scattered on the next day after sowing; details: treated next day after sowing, 26 days after treatment, 0 = no growth inhibition, 100 = full dying, 4-(tert-butyl)benzoic acid 1000 g ai/ha in Examples, 0 in Comparative Examples, herbicide dose per label
Description: as §2, §3, §4

[12] = test system: soybean (Fukuyutaka); assay: as above
Description: as §2, §3, §4

[13] = test system: barley (Minori Rokujo); assay: Visual growth study, phytotoxicity index, chemicals scattered 14 days after sowing; details: in vivo
Description: as §1

[14] = wheat, 2 leaves stage, treated 14 days after sowing, 14 days after treatment, 0-100 scale, 4-(tert-butyl)benzoic acid 1000 g ai/ha in Examples, 0 in Comparative Examples, herbicide dose per label

How did the Phytotoxicity index [1] turn out when `O=C(Nc1ccc(F)cc1F)c1cccnc1Oc1cccc(C(F)(F)F)c1` [compound 17, Diflufenican] was run?
Its Phytotoxicity index is 35.

Which Phytotoxicity index [2] does the source give for `CCNc1nc(Cl)nc(NC(C)C)n1` [compound 7, Atrazine] here?
Its Phytotoxicity index is 35.

How did the Phytotoxicity index ([3]; rapeseed, two paired leaves extraction stage, treated 14 days after sowing, 14 days after treatment, 0-100 scale, 4-(tert-butyl)benzoic acid 1000 g ai/ha in Examples, 0 in Comparative Examples, herbicide dose per label) turn out when `COC[C@H](C)N(C(=O)CCl)c1c(C)csc1C` [compound 29, Dimethenamide-P] was run?
The Phytotoxicity index was 10.

Which Phytotoxicity index [4, 14] does the source give for `O=C(Nc1ccc(F)cc1F)c1cccnc1Oc1cccc(C(F)(F)F)c1` [compound 22, Diflufenican] here?
Its Phytotoxicity index is 15.

How did the Phytotoxicity index [5] turn out when `O=C(Nc1ccc(F)cc1F)c1cccnc1Oc1cccc(C(F)(F)F)c1` [compound 26, Diflufenican] was run?
The Phytotoxicity index was 30.

`CC(C)C1(C)N=C(c2nc3ccccc3cc2C(=O)O)NC1=O` (stereo not shown) [compound 8, Imazaquin ammonium salt] was tested. Which Phytotoxicity index [6] did it give?
The Phytotoxicity index was 45.

For `COc1cc(OC)nc(Oc2cccc(Oc3nc(OC)cc(OC)n3)c2C(=O)O)n1` [compound 24, Bispyribac-sodium], which Phytotoxicity index [7] is on record?
The Phytotoxicity index was 18.

Which Phytotoxicity index [1] does the source give for `CS(=O)(=O)c1ccc(C(=O)C2C(=O)CCCC2=O)c([N+](=O)[O-])c1` [compound 16, Mesotrione] here?
Its Phytotoxicity index is 13.

With `COc1cc(OC)nc(Oc2cccc(Oc3nc(OC)cc(OC)n3)c2C(=O)O)n1` [compound 19, Bispyribac-sodium] as the compound, how does the Phytotoxicity index [4, 14] read?
Its Phytotoxicity index is 35.

For `CCOC(=O)[C@@H](C)Oc1ccc(Oc2nc3ccc(Cl)cc3o2)cc1` [compound 18, Fenoxaprop-P-ethyl], which Phytotoxicity index [4, 14] is on record?
The Phytotoxicity index was 40.

How did the Phytotoxicity index [8] turn out when `Cc1ccn2nc(S(=O)(=O)Nc3c(F)cccc3F)nc2n1` [compound 4, Flumetsulam] was run?
Its Phytotoxicity index is 13.

Which Phytotoxicity index ([3]; in vivo) does the source give for `Cn1nc(C(F)(F)F)c(CS(=O)(=O)C2=NOC(C)(C)C2)c1OC(F)F` [compound 30] here?
The Phytotoxicity index was 40.

Which Phytotoxicity index [9] does the source give for `COC[C@H](C)N(C(=O)CCl)c1c(C)csc1C` [compound 31, Dimethenamide-P] here?
The Phytotoxicity index was 35.

How did the Phytotoxicity index ([10]; adzuki bean, true leaf extraction stage, treated 14 days after sowing, 8 days after treatment, 0-100 scale, 4-(tert-butyl)benzoic acid 1000 g ai/ha in Examples, 0 in Comparative Examples, herbicide dose per label) turn out when `O=C(Nc1ccc(F)cc1F)c1cccnc1Oc1cccc(C(F)(F)F)c1` [compound 28, Diflufenican] was run?
The Phytotoxicity index was 35.

How did the Phytotoxicity index ([10]; in vivo) turn out when `Cn1nc(C(F)(F)F)c(CS(=O)(=O)C2=NOC(C)(C)C2)c1OC(F)F` [compound 27] was run?
The Phytotoxicity index was 25.

With `Cn1nc(C(F)(F)F)c(CS(=O)(=O)C2=NOC(C)(C)C2)c1OC(F)F` [compound 20] as the compound, how does the Phytotoxicity index ([4]; in vivo) read?
The Phytotoxicity index was 20.

With `CCNc1nc(Cl)nc(NC(C)C)n1` [compound 3, Atrazine] as the compound, how does the Phytotoxicity index [11] read?
Its Phytotoxicity index is 15.

How did the Phytotoxicity index [4, 14] turn out when `CS(=O)(=O)c1ccc(C(=O)C2C(=O)CCCC2=O)c([N+](=O)[O-])c1` [compound 21, Mesotrione] was run?
The Phytotoxicity index was 40.

With `COC[C@H](C)N(C(=O)CCl)c1c(C)csc1C` [compound 10, Dimethenamide-P] as the compound, how does the Phytotoxicity index ([12]; soybean, treated next day after sowing, 26 days after treatment, 0 = no growth inhibition, 100 = full dying, 4-(tert-butyl)benzoic acid 1000 g ai/ha in Examples, 0 in Comparative Examples, herbicide dose per label) read?
Its Phytotoxicity index is 20.

`COC[C@H](C)N(C(=O)CCl)c1c(C)csc1C` [compound 25, Dimethenamide-P] was tested. Which Phytotoxicity index [5] did it give?
Its Phytotoxicity index is 15.

With `COc1cc(OC)nc(Oc2cccc(Oc3nc(OC)cc(OC)n3)c2C(=O)O)n1` [compound 14, Bispyribac-sodium] as the compound, how does the Phytotoxicity index [1] read?
Its Phytotoxicity index is 45.

`Cn1nc(C(F)(F)F)c(CS(=O)(=O)C2=NOC(C)(C)C2)c1OC(F)F` [compound 23] was tested. Which Phytotoxicity index [13] did it give?
The Phytotoxicity index was 18.

`COC[C@H](C)N(C(=O)CCl)c1c(C)csc1C` [compound 2, Dimethenamide-P] was tested. Which Phytotoxicity index [11] did it give?
Its Phytotoxicity index is 33.

For `COC[C@H](C)N(C(=O)CCl)c1c(C)csc1C` [compound 15, Dimethenamide-P], which Phytotoxicity index [1] is on record?
The Phytotoxicity index was 20.

Which Phytotoxicity index ([12]; in vivo) does the source give for `Cn1nc(C(F)(F)F)c(CS(=O)(=O)C2=NOC(C)(C)C2)c1OC(F)F` [compound 11] here?
Its Phytotoxicity index is 20.
